The test system of the data set is CCRIS mutagenicity, Ames/micronucleus/aberration tests. Description: CCRIS mutagenicity studies.

Calls of active or inactive are those of the source. No rule for the calls is given here.

This is an account of results in PubChem BioAssay AID1259407 (Chemical Carcinogenesis Research Information System (CCRIS), 2018).

As to `NC(=O)N/N=C/c1ccc([N+](=O)[O-])o1`, the mutagenic call runs as follows: (End Point: IN VITRO CHROMOSOMAL ABERRATIONS, Test System: CHO CELLS, Metabolic Activation: NONE) “active; positive”; (End Point: IN VITRO CHROMOSOMAL ABERRATIONS, Test System: CHO CELLS, Metabolic Activation: RAT, LIVER, S-9, AROCLOR 1254) “active; positive; precipitation occurred at 500 ug/ml”; (Test System: AMES SALMONELLA TYPHIMURIUM, Strain/Indicator: TA97, Metabolic Activation: NONE, Method: FLUCTUATION TEST) “active; positive”; (Test System: AMES SALMONELLA TYPHIMURIUM, Strain/Indicator: TA98(1,8-DNP6), Metabolic Activation: NONE, Method: STANDARD PLATE) “active; positive”; (Test System: AMES SALMONELLA TYPHIMURIUM, Strain/Indicator: TA98(1,8-DNP6), Metabolic Activation: RAT, LIVER, S-9, 3-METHYLCHOLANTHRENE, Method: STANDARD PLATE) “active; positive”; (Test System: AMES SALMONELLA TYPHIMURIUM, Strain/Indicator: TA98(NR), Metabolic Activation: NONE, Method: STANDARD PLATE) “active; positive”. The mutagenic call (Test System: AMES SALMONELLA TYPHIMURIUM, Strain/Indicator: TA98(NR), Metabolic Activation: RAT, LIVER, S-9, 3-METHYLCHOLANTHRENE, Method: STANDARD PLATE) was “active; positive”; the mutagenic call (Test System: AMES SALMONELLA TYPHIMURIUM, Strain/Indicator: TA98, Metabolic Activation: HAMSTER, LIVER, S-9, AROCLOR 1254 (10%), Method: PREINCUBATION) was “active; positive”; the mutagenic call (Test System: AMES SALMONELLA TYPHIMURIUM, Strain/Indicator: TA98, Metabolic Activation: HAMSTER, LIVER, S-9, AROCLOR 1254, Method: PREINCUBATION) was “active; positive”; the mutagenic call (Test System: AMES SALMONELLA TYPHIMURIUM, Strain/Indicator: TA98, Metabolic Activation: NONE, Method: PREINCUBATION) is “active; positive”; the mutagenic call (Test System: AMES SALMONELLA TYPHIMURIUM, Strain/Indicator: TA98, Metabolic Activation: NONE, Method: STANDARD PLATE) is “active; positive”; the mutagenic call (Test System: AMES SALMONELLA TYPHIMURIUM, Strain/Indicator: TA98, Metabolic Activation: RAT LIVER S-9, AROCLOR 1254, Method: STANDARD PLATE) was “active; positive”. For the same compound, the mutagenic call (Test System: AMES SALMONELLA TYPHIMURIUM, Strain/Indicator: TA98, Metabolic Activation: RAT, LIVER, S-9, 3-METHYLCHOLANTHRENE, Method: STANDARD PLATE) is “active; positive”; the mutagenic call (Test System: AMES SALMONELLA TYPHIMURIUM, Strain/Indicator: TA98, Metabolic Activation: RAT, LIVER, S-9, AROCLOR 1254 (10%), Method: PREINCUBATION) is “active; positive”; the mutagenic call (Test System: AMES SALMONELLA TYPHIMURIUM, Strain/Indicator: TA98, Metabolic Activation: RAT, LIVER, S-9, AROCLOR 1254, Method: PREINCUBATION) was “active; positive”; the mutagenic call (Test System: AMES SALMONELLA TYPHIMURIUM, Strain/Indicator: TA98, Metabolic Activation: RAT, LIVER, S-9, KC500 OR PHENOBARBITAL, Method: LIQUID SUSPENSION) is “active; positive”; the mutagenic call (Test System: AMES SALMONELLA TYPHIMURIUM, Strain/Indicator: TA100, Metabolic Activation: HAMSTER, LIVER, S-9, AROCLOR 1254 (10%), Method: PREINCUBATION) was “active; positive”; the mutagenic call (Test System: AMES SALMONELLA TYPHIMURIUM, Strain/Indicator: TA100, Metabolic Activation: HAMSTER, LIVER, S-9, AROCLOR 1254, Method: PREINCUBATION) is “active; positive”. Moreover, the mutagenic call (Test System: AMES SALMONELLA TYPHIMURIUM, Strain/Indicator: TA100, Metabolic Activation: NONE, Method: PREINCUBATION) is “active; positive”; the mutagenic call (Test System: AMES SALMONELLA TYPHIMURIUM, Strain/Indicator: TA100, Metabolic Activation: RAT, LIVER, S-9, AROCLOR 1254 (10%), Method: PREINCUBATION) is “active; positive”; the mutagenic call (Test System: AMES SALMONELLA TYPHIMURIUM, Strain/Indicator: TA100, Metabolic Activation: RAT, LIVER, S-9, AROCLOR 1254, Method: PREINCUBATION) is “active; positive”; the mutagenic call (Test System: AMES SALMONELLA TYPHIMURIUM, Strain/Indicator: TA100, Metabolic Activation: RAT, LIVER, S-9, KC500 OR PHENOBARBITAL, Method: LIQUID SUSPENSION) was “active; positive”; the mutagenic call (Test System: AMES SALMONELLA TYPHIMURIUM, Strain/Indicator: TA102, Metabolic Activation: NONE, Method: STANDARD PLATE) was “active; positive”; the mutagenic call (Test System: AMES SALMONELLA TYPHIMURIUM, Strain/Indicator: TA102, Metabolic Activation: RAT LIVER S-9, AROCLOR 1254, Method: STANDARD PLATE) was “active; positive”. The mutagenic call (Test System: AMES SALMONELLA TYPHIMURIUM, Strain/Indicator: TA1535, Metabolic Activation: HAMSTER, LIVER, S-9, AROCLOR 1254 (10%), Method: PREINCUBATION) was “active; positive”; the mutagenic call (Test System: AMES SALMONELLA TYPHIMURIUM, Strain/Indicator: TA1535, Metabolic Activation: HAMSTER, LIVER, S-9, AROCLOR 1254, Method: PREINCUBATION) is “active; positive”; the mutagenic call (Test System: AMES SALMONELLA TYPHIMURIUM, Strain/Indicator: TA1535, Metabolic Activation: NONE, Method: PREINCUBATION) is “inactive; negative”; the mutagenic call (Test System: AMES SALMONELLA TYPHIMURIUM, Strain/Indicator: TA1535, Metabolic Activation: RAT, LIVER, S-9, AROCLOR 1254 (10%), Method: PREINCUBATION) was “active; positive”; the mutagenic call (Test System: AMES SALMONELLA TYPHIMURIUM, Strain/Indicator: TA1535, Metabolic Activation: RAT, LIVER, S-9, AROCLOR 1254, Method: PREINCUBATION) is “active; positive”; the mutagenic call (Test System: AMES SALMONELLA TYPHIMURIUM, Strain/Indicator: TA1537, Metabolic Activation: RAT, LIVER, S-9, AROCLOR 1254, Method: PREINCUBATION) was “inactive; negative”. Moreover, the mutagenic call by setting is: (Test System: E. COLI, Strain/Indicator: EE97, Metabolic Activation: NONE, Method: FLUCTUATION TEST) “active; positive”; (Test System: E. COLI, Strain/Indicator: WP2, Metabolic Activation: NONE, Method: FLUCTUATION TEST) “active; positive”; (Test System: E. COLI, Strain/Indicator: WP2, Metabolic Activation: NONE, Method: SPOT) “active; positive”; (Test System: E. COLI, Strain/Indicator: WP2, Metabolic Activation: NONE, Method: STANDARD PLATE) “active; positive”; (Test System: E. COLI, Strain/Indicator: WP2 UVRA, Metabolic Activation: NONE, Method: FLUCTUATION) “active; positive”; (Test System: E. COLI, Strain/Indicator: WP2 UVRA, Metabolic Activation: NONE, Method: SPOT) “active; positive”. For the same compound, the mutagenic call is “active; positive” (Test System: E. COLI, Strain/Indicator: WP2 UVRA, Metabolic Activation: NONE, Method: STANDARD PLATE) and “active; positive” (Test System: MOUSE LYMPHOMA, Strain/Indicator: L5178Y (TK+/TK-), Metabolic Activation: NONE, Method: SUSPENSION/PLATE).
With `ClC1=C(Cl)[C@]2(Cl)C3C(Cl)C(Cl)CC3[C@@]1(Cl)C2(Cl)Cl` (some centres undefined), under “Test System: AMES SALMONELLA TYPHIMURIUM, Strain/Indicator: TA100, Metabolic Activation: NONE, Method: DESICCATOR”, the mutagenic call is “active; positive”.
